Each structure is given as a SMILES string. Structures can show the parent of a compound that is named as a salt. Where only a bound is given, the exact number is not on record here.

From ChEMBL document CHEMBL4622954, “Structural manipulation of aporphines via C10 nitrogenation leads to the identification of new 5-HT7AR ligands” (Bioorg Med Chem, 2020) come the findings set out here.

Test [1] has as its target T1, 5-hydroxytryptamine receptor 7 (Homo sapiens, UniProt P34969). Kind of test: biochemical.
Description: (§2) Displacement of [3H]-LSD from human 5-HT7A receptor expresssed in stable HEK cell membrane incubated for 90 mins by microbeta counting method
Test [2] addresses T2, 5-hydroxytryptamine receptor 1A (Homo sapiens, UniProt P08908).
T2 sequence (P08908 whole entry): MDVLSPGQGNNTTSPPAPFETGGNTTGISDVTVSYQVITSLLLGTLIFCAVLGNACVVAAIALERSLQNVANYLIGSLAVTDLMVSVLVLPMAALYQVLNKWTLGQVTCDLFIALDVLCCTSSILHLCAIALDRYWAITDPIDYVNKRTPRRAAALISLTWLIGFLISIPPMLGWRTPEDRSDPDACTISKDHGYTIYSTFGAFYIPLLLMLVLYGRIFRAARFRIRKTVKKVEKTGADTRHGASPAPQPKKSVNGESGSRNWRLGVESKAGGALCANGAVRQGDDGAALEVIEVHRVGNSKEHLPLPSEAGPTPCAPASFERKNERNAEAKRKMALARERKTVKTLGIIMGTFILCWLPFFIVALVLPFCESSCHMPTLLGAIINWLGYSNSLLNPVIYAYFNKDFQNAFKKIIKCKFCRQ
Particulars: cho; call rule not given here.

For test [3], the target named is T3, 5-hydroxytryptamine receptor 1A (Homo sapiens) (UniProt P08908).
T3 sequence (whole entry): T2 sequence (P08908 whole entry)
The following applies: CHO.
Description: (§3) Displacement of [3H]-WAY100635 from human 5-HT1A receptor expresssed in stable CHO cell membrane incubated for 90 mins by microbeta counting method

Test [4] has as its target 5-hydroxytryptamine receptor 2A (Homo sapiens, UniProt P28223).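 Further: [3H]-Ketanserin displacement from the 5-HT2A receptor after 90 min incubation, with bound label read by MicroBeta counting.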
Description: Displacement of [3H]-Ketanserin from 5-HT2A receptor (unknown origin) incubated for 90 mins by microbeta counting method
In test [5] the target is T4, 5-hydroxytryptamine receptor 6 (Homo sapiens, UniProt P50406). Kind of test: biochemical.
T4 sequence (P50406 whole entry): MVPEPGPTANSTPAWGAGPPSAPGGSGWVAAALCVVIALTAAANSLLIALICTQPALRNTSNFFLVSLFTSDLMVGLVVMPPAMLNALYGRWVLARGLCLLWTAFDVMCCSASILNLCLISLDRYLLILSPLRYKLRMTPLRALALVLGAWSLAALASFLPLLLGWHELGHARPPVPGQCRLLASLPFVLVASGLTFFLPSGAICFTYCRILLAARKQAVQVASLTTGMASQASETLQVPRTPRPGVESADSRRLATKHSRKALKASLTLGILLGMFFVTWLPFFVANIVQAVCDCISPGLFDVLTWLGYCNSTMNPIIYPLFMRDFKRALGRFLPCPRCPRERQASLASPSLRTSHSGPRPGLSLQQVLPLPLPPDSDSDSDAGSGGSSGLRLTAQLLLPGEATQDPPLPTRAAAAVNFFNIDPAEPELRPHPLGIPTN
Test [6] deals with T2, 5-hydroxytryptamine receptor 1A. Briefly: biochemical.
Description: as §3
The target of test [7] is T1, 5-hydroxytryptamine receptor 7.
Description: as §2
The target of test [8] is T4, 5-hydroxytryptamine receptor 6.
Test [9] shares this target. Kind of test: Displacement of [3H]-LSD from human 5-HT6 receptor expresssed in stable HEK cell membrane incubated for 90 mins by microbeta counting method. In general terms: Loss of bound radioactivity is the signal in a displacement assay; it reports binding, not function.
For test [10], the target named is T1, 5-hydroxytryptamine receptor 7. The source holds these as a separate data set.
Description: as §2
Test [11] concerns the target T5, D(1A) dopamine receptor (Homo sapiens, UniProt P21728).
Test [12] has as its target T6, D(2) dopamine receptor (Homo sapiens, UniProt P14416). The following applies: fibroblast.
The target in the next test is T7, D(4) dopamine receptor (Homo sapiens, UniProt P21917).
T7 sequence (P21917 whole entry): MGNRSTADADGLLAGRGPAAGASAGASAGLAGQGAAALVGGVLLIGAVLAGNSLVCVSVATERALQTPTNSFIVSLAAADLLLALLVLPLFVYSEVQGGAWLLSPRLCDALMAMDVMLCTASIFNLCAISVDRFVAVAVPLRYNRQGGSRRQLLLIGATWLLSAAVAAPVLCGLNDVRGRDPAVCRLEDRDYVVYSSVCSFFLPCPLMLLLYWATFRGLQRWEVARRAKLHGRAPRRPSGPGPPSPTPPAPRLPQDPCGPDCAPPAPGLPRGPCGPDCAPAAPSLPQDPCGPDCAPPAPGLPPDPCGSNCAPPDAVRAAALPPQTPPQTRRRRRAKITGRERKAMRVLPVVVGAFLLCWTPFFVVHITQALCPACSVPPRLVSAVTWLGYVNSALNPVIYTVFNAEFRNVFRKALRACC
Kind of test: (§1) Displacement of [3H]-N-Methylspiperone from human dopamine D4 receptor expressed in stable HEK cells incubated for 90 mins by microbeta counting method. It counts as cell-based.

The target of test [13] is T8, D(4) dopamine receptor (Homo sapiens) (UniProt P21917).
T8 sequence (whole entry): T7 sequence (P21917 whole entry)
Described as §1. It counts as cell-based.

Test [14] deals with T5, D(1A) dopamine receptor. Kind of test: Displacement of [3H]-SCH23390 from human dopamine D1 receptor expressed in HEKT cells incubated for 90 mins by microbeta counting method.
Another test is filed under the species Homo sapiens. Kind of test: Selectivity index, ratio of Ki for human 5-HT7A receptor expressed in stable HEK cell membrane to Ki for human 5-HT1A receptor expresssed in stable CHO cell membrane incubated for 90 mins by microbeta counting method. The test is classed as cell-based.
The target of another test is D(1B) dopamine receptor (Homo sapiens, UniProt P21918). Kind of test: Binding affinity to human dopamine D5 receptor expressed in HEKT cells incubated for 90 mins by microbeta counting method. It counts as cell-based.
Chain of D(1B) dopamine receptor (P21918 whole entry): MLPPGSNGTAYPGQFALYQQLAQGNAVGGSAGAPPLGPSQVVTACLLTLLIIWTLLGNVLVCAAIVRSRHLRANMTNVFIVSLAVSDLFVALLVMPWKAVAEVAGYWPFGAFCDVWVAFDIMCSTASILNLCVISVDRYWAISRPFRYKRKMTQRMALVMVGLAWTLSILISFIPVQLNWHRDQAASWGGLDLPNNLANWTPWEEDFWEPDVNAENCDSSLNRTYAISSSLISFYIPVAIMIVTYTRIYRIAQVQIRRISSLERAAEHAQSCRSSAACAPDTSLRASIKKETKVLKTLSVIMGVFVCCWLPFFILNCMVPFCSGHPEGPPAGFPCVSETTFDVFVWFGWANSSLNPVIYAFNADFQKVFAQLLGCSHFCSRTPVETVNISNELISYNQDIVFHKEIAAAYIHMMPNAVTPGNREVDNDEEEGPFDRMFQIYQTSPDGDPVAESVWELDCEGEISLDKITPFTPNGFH
A further test concerns the target D(3) dopamine receptor (Homo sapiens, UniProt P35462).
Test [15] has as its target T6, D(2) dopamine receptor. Kind of test: Displacement of [3H]-N-Methylspiperone from human dopamine D2 receptor expressed in stable fibroblast cells incubated for 90 mins by microbeta counting method.
For test [16], the target named is T5, D(1A) dopamine receptor. Kind of test: biochemical.
The target in test [17] is T6, D(2) dopamine receptor. Briefly: biochemical.
The target in test [18] is T1, 5-hydroxytryptamine receptor 7. Briefly: Antagonist activity at human recombinant 5-HT7 receptor expressed in CHOK1 Hunter cell preincubated for 30 mins followed by incubation with agonist for 30 to 60 mins by hit-hunter cAMP assay based chemiluminescence analysis. It counts as functional, CHO-K1. For orientation: Cyclic AMP is a second messenger, typically raised through Gs and lowered through Gi signalling.

T6 sequence (P14416 whole entry): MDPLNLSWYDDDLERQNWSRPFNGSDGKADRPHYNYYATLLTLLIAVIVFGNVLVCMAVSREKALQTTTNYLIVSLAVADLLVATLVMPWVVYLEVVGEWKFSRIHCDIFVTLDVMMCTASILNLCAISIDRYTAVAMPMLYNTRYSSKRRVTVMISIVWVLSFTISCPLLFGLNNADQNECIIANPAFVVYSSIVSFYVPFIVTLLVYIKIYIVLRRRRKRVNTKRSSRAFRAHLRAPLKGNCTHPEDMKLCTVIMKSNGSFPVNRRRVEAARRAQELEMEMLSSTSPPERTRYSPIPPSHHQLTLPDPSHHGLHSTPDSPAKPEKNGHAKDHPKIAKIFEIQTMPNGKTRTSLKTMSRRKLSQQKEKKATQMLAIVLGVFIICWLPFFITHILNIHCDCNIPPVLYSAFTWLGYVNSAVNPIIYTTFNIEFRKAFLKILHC
T1 sequence (P34969 whole entry): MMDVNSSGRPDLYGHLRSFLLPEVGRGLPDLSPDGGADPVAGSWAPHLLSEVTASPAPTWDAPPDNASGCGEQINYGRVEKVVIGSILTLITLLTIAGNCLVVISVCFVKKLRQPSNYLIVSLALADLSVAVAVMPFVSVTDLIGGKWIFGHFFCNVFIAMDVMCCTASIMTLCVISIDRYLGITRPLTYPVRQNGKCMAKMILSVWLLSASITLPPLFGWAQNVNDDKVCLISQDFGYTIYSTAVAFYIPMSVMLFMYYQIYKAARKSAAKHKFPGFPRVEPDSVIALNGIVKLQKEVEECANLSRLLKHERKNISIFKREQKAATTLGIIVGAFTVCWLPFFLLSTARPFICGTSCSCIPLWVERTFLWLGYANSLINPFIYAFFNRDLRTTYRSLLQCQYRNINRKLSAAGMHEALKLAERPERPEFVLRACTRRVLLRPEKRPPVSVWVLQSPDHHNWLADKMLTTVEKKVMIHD
Chain of 5-hydroxytryptamine receptor 2A (P28223 whole entry): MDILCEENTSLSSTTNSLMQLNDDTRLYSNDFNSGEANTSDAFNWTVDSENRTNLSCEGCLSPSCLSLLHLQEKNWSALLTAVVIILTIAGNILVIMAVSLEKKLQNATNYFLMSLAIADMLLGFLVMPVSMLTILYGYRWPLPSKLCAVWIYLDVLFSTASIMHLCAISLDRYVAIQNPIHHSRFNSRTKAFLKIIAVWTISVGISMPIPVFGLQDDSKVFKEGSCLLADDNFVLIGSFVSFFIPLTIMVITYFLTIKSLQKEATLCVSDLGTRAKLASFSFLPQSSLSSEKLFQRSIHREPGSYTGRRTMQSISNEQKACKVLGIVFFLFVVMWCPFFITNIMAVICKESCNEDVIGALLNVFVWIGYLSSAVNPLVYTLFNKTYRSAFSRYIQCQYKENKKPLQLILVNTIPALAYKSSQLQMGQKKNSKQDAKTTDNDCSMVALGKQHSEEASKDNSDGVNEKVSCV
Chain of D(3) dopamine receptor (P35462 whole entry): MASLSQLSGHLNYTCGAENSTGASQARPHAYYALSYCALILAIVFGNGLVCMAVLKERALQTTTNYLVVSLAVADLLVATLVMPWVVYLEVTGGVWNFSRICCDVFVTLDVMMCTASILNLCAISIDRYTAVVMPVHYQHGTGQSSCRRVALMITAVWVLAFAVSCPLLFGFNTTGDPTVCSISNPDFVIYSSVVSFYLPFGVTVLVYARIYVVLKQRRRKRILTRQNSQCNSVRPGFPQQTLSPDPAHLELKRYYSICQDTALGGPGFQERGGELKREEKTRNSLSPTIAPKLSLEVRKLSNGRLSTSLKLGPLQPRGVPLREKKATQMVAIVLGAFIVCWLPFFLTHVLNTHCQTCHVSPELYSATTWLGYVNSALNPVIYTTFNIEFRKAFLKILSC
T5 sequence (P21728 whole entry): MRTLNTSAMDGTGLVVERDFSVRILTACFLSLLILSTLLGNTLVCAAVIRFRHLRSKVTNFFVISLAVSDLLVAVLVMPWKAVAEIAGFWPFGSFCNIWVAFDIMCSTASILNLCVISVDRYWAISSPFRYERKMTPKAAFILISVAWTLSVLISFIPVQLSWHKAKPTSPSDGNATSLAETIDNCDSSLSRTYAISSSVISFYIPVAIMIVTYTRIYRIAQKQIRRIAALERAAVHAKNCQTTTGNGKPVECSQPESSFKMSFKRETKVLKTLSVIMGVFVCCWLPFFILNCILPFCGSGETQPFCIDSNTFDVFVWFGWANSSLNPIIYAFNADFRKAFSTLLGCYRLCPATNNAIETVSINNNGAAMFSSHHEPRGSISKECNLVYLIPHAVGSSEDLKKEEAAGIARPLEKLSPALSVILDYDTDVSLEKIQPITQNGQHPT
Description for D(3) dopamine receptor: Displacement of [3H]-N-Methylspiperone from dopamine D3 receptor (unknown origin) incubated for 90 mins by microbeta counting method

As usually defined, the Ki is the equilibrium dissociation constant of an inhibitor or competing ligand from its target. The term inhibition denotes the change of the read-out against control, counted positive when it falls. Regarding `COc1cc2c3c(c1OC)-c1cc(NC(N)=O)ccc1CC3N(C)CC2` (racemic), the Ki in test [1] was 289 nM; in test [2] it was “Not Active”; in test [4], “Not Active”; in test [5], 415 nM. Further, the inhibition in [3] was less than 50%.

With `CCCN1CCc2cccc3c2C1Cc1ccc(NC(N)=O)cc1-3` (racemic), the inhibition constant Ki entry in test [4] is “Not Active”; in test [6], 236 nM; in [7] it was “Not Active”; in test [8], “Not Active”. In addition, the inhibition in [9] and in test [10] was less than 50% throughout.

In the case of `CCCC(=O)Nc1ccc2c(c1)-c1cccc3c1C(C2)N(CCC)CC3` (racemic), the Ki in test [1] was 311 nM; in test [4], “Not Active”; in test [6] it was 15 nM; in [8], “Not Active”. The compound also registered an inhibition in [9] of less than 50%.

Consider `CCCN1CCc2cccc3c2C1Cc1ccc(N(C)C)cc1-3` (racemic), for which the Ki is 984 nM in test [1], “Not Active” in test [4], 256 nM in [6] and “Not Active” in [8]. The inhibition in [9] is less than 50%.

As to `COc1cc2c3c(c1OCC1CC1)-c1cc(N)ccc1CC3N(C)CC2` (racemic), the inhibition constant (Ki) is 104 nM in test [1], “Not Active” in test [2], 110 nM in test [4] (read-out: Ki) and 132 nM in test [5]. The same compound showed an inhibition in test [3] of less than 50%.

Regarding `CCCN1CCc2cccc3c2C1Cc1cc2sc(N)nc2cc1-3` (racemic), the Ki entry at D(1A) dopamine receptor [11] was “Not Active”; in [1] it was 132 nM; in test [4], “Not Active”; at D(2) dopamine receptor [12] it was “Not Active”; on D(4) dopamine receptor, “Not Active”; in test [6], 7.5 nM. The Ki result in test [8] is “Not Active”; at D(1B) dopamine receptor it was “Not Active”; at D(3) dopamine receptor, 2110 nM. The inhibition (in [13]; on D(1A) dopamine receptor [14]; in [9]; on D(1B) dopamine receptor; at D(2) dopamine receptor [15]) was less than 50% throughout. Besides, in the test filed under Homo sapiens, the Ratio Ki amounted to 17.

Consider `CN1CCc2cccc3c2C1Cc1ccc(NC(N)=O)cc1-3` (racemic), for which the Ki entry on D(1A) dopamine receptor [11] was “Not Active”; in test [4] it was “Not Active”; at D(2) dopamine receptor [12], “Not Active”; at D(4) dopamine receptor it was “Not Active”; in test [6] it was 49 nM; in test [8] it was “Not Active”. Further, the Ki result is “Not Active” on D(1B) dopamine receptor and 2460 nM on D(3) dopamine receptor.

As to `COc1cc2c3c(c1OC)-c1cc(NS(C)(=O)=O)ccc1CC3N(C)CC2` (racemic), the inhibitory constant (Ki) was 89 nM in test [1], “Not Active” in test [2], “Not Active” in test [4] and 86 nM in [5]. This compound also yielded an inhibition in [3] of less than 50%.

As to `CN1CCc2cccc3c2C1Cc1ccc2nc(N)sc2c1-3` (racemic), the Ki in test [1] is 9.9 nM; at D(1A) dopamine receptor [16], 1150 nM; in test [4] (read-out: Ki), 1040 nM; on D(2) dopamine receptor [17], 1740 nM; on D(4) dopamine receptor (read-out: Ki), 481 nM; in test [6] it was 187 nM. Also, the values for the inhibitory constant (Ki) entry (in [8]; at D(1B) dopamine receptor; at D(3) dopamine receptor) were “Not Active”, “Not Active” and 381 nM, respectively. Besides, the inhibition (in [9]; on D(1B) dopamine receptor) was less than 50% each time.

Turning to `CCCN1CCc2cccc3c2C1Cc1ccc(NS(C)(=O)=O)cc1-3` (racemic), the inhibition constant (Ki) in test [1] is 199 nM; in test [4] it was “Not Active”; in test [6] it was 23 nM; in [8], “Not Active”. This compound also showed an inhibition in test [9] of less than 50%.

As to `C=CCOc1c(OC)cc2c3c1-c1cc(N(C)C)ccc1CC3N(C)CC2` (racemic), the inhibition constant Ki is 309 nM in [1], “Not Active” in test [2], 318 nM in test [4] (read-out: Ki) and 102 nM in test [5]. For the same compound, the inhibition in [3] was less than 50%.

For orientation: IC50 means the concentration at which inhibition is half-maximal. As for `O=C(CCCN1CCC2(CC1)C(=O)NCN2c1ccccc1)c1ccc(F)cc1` [SPIPERONE HYDROCHLORIDE], in [18], the IC50 was found to be 310 nM.

Turning to `CCCN1CCc2cccc3c2C1Cc1ccc(NC(C)=O)cc1-3` (racemic), the Ki result is “Not Active” in [4], 21 nM in test [6], “Not Active” in test [7] and “Not Active” in test [8]. The inhibition in test [9] and in test [10] was less than 50% in each case.

Regarding `CN1CCc2cccc3c2C1Cc1cc2sc(N)nc2cc1-3` (racemic), the inhibition constant Ki result was “Not Active” on D(1A) dopamine receptor [11]; “Not Active” in [4]; “Not Active” on D(2) dopamine receptor [12]; “Not Active” on D(4) dopamine receptor; 23 nM in [6]; “Not Active” in test [8]. Also, the inhibitory constant (Ki) entry on D(1B) dopamine receptor was “Not Active”.
